According to ChEMBL document CHEMBL5500425, “Designing Small Molecule PI3Kγ Inhibitors: A Review of Structure-Based Methods and Computational Approaches” (J Med Chem, 2024):
Each block holds one molecule with its values, some of them ahead of it.

What was measured:
[1] = Clearance in Beagle Dog at 1 micromol/kg, iv; assay type: ADME, Canis lupus familiaris; details: in vivo, dose 1 µmol/kg
[2] = Oral bioavailability in Beagle dog at 2 mg/kg; assay type: ADME, organism-based, Canis lupus familiaris; details: in vivo
[3] = biological target: T1, Phosphatidylinositol 4,5-bisphosphate 3-kinase catalytic subunit delta isoform (Homo sapiens, UniProt O00329); assay: Inhibition of P13Kdelta (unknown origin) in the presence of ATP by scintillation proximity assay
T1 sequence (O00329 whole entry): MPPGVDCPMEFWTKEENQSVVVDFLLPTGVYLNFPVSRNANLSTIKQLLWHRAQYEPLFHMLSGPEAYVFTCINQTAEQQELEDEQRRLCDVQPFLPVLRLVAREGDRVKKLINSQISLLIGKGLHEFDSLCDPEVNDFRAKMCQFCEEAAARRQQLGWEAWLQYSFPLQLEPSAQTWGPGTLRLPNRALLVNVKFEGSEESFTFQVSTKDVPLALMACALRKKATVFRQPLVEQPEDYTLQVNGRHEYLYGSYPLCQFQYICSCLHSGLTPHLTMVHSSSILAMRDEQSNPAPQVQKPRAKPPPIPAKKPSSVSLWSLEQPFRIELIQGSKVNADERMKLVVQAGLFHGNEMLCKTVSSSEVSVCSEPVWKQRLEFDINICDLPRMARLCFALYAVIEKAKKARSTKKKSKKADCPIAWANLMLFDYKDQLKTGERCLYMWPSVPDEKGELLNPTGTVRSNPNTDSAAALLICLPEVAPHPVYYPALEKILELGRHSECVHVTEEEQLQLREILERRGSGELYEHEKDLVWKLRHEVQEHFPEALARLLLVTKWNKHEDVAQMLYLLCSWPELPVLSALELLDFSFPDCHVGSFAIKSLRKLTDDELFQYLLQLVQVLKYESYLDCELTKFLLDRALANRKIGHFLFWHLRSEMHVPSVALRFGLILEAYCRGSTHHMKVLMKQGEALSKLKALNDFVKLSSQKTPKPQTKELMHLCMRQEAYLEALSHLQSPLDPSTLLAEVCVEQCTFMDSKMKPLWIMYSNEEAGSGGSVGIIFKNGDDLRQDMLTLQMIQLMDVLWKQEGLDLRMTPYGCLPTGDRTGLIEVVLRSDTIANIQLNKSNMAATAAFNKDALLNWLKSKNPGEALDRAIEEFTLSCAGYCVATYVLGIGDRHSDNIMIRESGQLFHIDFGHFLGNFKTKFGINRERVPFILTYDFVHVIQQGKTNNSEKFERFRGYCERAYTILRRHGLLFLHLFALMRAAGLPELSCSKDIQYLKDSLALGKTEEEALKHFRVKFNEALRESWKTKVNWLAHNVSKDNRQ

[4] = biological target: T2, Phosphatidylinositol 4,5-bisphosphate 3-kinase catalytic subunit gamma isoform (Homo sapiens, UniProt P48736); assay: Inhibition of human recombinant PI3Kgamma using phosphatidylinositol as substrate in presence of [gamma33P]ATP by scintillation proximity assay
Target sequence in this assay (P48736 whole entry, looked up, canonical isoform): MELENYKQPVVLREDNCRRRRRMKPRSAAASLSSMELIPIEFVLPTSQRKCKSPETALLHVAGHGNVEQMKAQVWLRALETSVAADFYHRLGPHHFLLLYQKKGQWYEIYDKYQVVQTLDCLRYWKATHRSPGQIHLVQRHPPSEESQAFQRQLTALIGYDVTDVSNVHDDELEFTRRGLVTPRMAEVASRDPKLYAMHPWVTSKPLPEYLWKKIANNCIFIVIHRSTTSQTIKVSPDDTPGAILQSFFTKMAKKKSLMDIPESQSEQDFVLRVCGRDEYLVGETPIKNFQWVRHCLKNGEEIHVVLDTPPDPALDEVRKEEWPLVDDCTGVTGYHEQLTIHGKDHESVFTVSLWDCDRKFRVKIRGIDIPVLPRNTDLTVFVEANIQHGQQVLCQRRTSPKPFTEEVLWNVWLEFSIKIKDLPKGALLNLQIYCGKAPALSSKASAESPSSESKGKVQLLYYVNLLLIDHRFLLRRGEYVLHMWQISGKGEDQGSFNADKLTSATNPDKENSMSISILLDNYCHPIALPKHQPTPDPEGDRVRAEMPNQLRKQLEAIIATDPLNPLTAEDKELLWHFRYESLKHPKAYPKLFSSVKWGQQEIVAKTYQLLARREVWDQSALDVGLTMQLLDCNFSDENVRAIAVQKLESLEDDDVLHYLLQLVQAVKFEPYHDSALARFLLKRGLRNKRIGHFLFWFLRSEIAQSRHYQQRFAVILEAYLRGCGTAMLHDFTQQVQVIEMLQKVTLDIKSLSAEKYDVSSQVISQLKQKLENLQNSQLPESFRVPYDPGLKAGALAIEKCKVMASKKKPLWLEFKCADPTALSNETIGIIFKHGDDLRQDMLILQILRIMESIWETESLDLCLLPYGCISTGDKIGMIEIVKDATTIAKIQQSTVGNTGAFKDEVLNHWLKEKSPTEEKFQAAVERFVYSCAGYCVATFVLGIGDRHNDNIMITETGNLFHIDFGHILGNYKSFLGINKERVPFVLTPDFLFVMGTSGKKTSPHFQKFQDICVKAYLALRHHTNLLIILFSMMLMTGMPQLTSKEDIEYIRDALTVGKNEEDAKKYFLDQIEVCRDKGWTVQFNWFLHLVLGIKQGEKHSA

[5] = biological target: Phosphatidylinositol 4,5-bisphosphate 3-kinase catalytic subunit alpha isoform (Homo sapiens, UniProt P42336); assay: Inhibition of PI3Kalpha (unknown origin) using […] as substrate preincubated for 10 mins followed by substrate addition by microplate reader analysis
Sequence of Phosphatidylinositol 4,5-bisphosphate 3-kinase catalytic subunit alpha isoform (P42336 whole entry, canonical isoform): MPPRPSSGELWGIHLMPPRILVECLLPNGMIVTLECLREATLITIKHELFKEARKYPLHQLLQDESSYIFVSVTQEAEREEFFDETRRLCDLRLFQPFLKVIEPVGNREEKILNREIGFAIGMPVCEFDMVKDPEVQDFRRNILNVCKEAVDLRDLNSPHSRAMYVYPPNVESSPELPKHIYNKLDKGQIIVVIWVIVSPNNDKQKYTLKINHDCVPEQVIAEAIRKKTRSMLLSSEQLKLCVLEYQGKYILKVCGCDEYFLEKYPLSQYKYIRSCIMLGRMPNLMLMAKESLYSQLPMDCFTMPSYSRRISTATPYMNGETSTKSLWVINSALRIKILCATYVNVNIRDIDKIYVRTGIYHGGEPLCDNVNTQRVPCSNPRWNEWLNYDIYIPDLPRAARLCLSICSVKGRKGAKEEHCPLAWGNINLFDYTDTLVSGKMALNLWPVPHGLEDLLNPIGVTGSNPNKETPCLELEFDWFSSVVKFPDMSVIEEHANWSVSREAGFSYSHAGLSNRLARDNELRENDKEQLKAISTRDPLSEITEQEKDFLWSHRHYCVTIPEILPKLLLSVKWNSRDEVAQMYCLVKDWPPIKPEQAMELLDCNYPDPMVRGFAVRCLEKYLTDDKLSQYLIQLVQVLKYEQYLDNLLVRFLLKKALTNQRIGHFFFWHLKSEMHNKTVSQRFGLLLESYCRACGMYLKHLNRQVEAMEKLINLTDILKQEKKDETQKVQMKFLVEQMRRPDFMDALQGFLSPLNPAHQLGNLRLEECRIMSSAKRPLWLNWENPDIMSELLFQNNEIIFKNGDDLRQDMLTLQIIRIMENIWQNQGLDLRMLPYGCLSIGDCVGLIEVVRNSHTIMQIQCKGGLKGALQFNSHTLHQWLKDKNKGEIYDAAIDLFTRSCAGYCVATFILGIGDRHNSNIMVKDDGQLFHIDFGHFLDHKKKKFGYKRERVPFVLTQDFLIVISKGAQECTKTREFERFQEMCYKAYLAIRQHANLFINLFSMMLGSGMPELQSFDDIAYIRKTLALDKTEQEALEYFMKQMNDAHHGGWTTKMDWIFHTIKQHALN

[6] = Oral bioavailability in rat at 10 mg/kg; assay type: ADME, organism-based; details: in vivo
[7] = Inhibition of P13Kalpha (unknown origin) in the presence of ATP by scintillation proximity assay
[8] = biological target: T2, Phosphatidylinositol 4,5-bisphosphate 3-kinase catalytic subunit gamma isoform; assay: Inhibition of human PI3Kgamma expressed in baculovirus infected Sf21 insect cells by ADP-Glo assay
Target sequence in this assay (P48736 whole entry, canonical isoform): as the sequence (P48736 whole entry, looked up, canonical isoform) above

[9] = biological target: T1, Phosphatidylinositol 4,5-bisphosphate 3-kinase catalytic subunit delta isoform; assay: Inhibition of human PI3Kdelta expressed in baculovirus infected Sf21 insect cells by ADP-Glo assay
[10] = biological target: T1, Phosphatidylinositol 4,5-bisphosphate 3-kinase catalytic subunit delta isoform; assay: Inhibition of PI3Kdelta (unknown origin)
[11] = biological target: T2, Phosphatidylinositol 4,5-bisphosphate 3-kinase catalytic subunit gamma isoform; assay: Inhibition of PI3Kgamma (unknown origin)
Target sequence in this assay (P48736 whole entry, canonical isoform): as the sequence (P48736 whole entry, looked up, canonical isoform) above

[12] = Inhibition of P13Kalpha (unknown origin)
[13] = biological target: Phosphatidylinositol 4,5-bisphosphate 3-kinase catalytic subunit beta isoform (Homo sapiens, UniProt P42338); assay: Inhibition of PI3Kbeta (unknown origin)
Sequence of Phosphatidylinositol 4,5-bisphosphate 3-kinase catalytic subunit beta isoform (P42338 whole entry, canonical isoform): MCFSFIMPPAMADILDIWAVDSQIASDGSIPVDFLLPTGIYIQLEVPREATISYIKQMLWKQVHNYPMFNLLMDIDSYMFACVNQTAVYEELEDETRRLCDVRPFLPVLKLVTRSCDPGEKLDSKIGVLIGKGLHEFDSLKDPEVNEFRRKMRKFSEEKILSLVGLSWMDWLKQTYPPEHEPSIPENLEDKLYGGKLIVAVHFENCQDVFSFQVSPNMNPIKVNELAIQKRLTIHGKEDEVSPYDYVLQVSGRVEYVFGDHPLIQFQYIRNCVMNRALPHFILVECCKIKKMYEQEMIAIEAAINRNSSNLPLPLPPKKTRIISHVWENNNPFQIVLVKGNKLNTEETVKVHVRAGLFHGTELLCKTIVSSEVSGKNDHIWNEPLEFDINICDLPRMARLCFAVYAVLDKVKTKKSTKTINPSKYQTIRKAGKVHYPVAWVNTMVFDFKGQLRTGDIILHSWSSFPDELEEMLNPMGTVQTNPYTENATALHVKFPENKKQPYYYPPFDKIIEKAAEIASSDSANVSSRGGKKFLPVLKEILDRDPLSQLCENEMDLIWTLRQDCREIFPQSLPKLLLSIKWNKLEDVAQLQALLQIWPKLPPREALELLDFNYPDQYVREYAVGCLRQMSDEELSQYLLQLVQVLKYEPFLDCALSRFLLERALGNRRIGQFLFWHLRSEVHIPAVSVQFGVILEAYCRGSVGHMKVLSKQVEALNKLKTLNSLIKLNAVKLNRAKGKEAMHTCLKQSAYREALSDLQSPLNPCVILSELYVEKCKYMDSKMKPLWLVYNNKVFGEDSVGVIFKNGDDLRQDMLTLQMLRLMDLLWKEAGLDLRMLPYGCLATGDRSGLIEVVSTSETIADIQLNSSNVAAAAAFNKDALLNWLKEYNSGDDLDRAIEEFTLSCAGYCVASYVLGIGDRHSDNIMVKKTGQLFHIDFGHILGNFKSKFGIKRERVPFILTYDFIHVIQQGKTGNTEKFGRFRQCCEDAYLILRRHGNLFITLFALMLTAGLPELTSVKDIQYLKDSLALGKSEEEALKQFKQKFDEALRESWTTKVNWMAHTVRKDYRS

- clearance [1]: 3.3 mL/min/kg
- bioavailability [2]: 82%
Structure (SMILES): CC(=O)Nc1nc(C)c(-c2cc3c(c(S(C)(=O)=O)c2)C(=O)N([C@@H](C)C2CC2)C3)s1

- IC50 [3]: < 2000 nM
- IC50 [4]: ≤ 100 nM
Structure (SMILES): Cc1cc(C(O)(CO)C(F)F)ccc1-c1cnc(N)c(C(=O)N2CC[C@H](CO)C2)n1 (stereo partly specified)

- IC50 [5]: 172 nM
Structure (SMILES): CC1(CCn2nc(-c3ccc(Cl)c(O)c3)c3c(N)ncnc32)COC1

- IC50 [4]: 40 nM
- bioavailability [6]: 72%
- IC50 [7]: 300 nM
Structure (SMILES): Cc1ncc(-c2cc(-c3ccc(S(=O)(=O)NCC(C)(C)O)cc3C)cnc2N)o1

- IC50 [3]: < 2000 nM
Structure (SMILES): Cc1nnc(-c2cc(-c3cc4c(c(S(C)(=O)=O)c3)C(=O)N([C@@H](C)C3CC3)C4)ccn2)[nH]1

- IC50 [4]: 24 nM
- bioavailability [6]: 23%
- IC50 [7]: 110 nM
Structure (SMILES): Cc1cc(S(=O)(=O)N[C@H]2CC[C@H](O)CC2)ccc1-c1cnc(N)c(C(=O)C2CC2)n1

- IC50 [3]: < 2000 nM
Structure (SMILES): Cc1nc(N)c2ncc(-c3cc(C(C)(O)CC(F)(F)F)ccc3C)n2n1 (stereo unspecified)

- IC50 [8]: < 250 nM
- IC50 [9]: ≥ 5000 nM
Structure (SMILES): COc1cncc(-c2ccc3nc(-c4nc5c(C)cccc5[nH]4)oc3c2)c1

- IC50 [3]: > 500 nM
Structure (SMILES): Clc1ccc(Cn2cc(-c3ccnc(-c4ncc(-c5ccccc5)[nH]4)c3)cn2)cc1

- IC50 [10]: < 2000 nM
- IC50 [11]: < 100 nM
Structure (SMILES): CC(NC(=O)c1c(N)nn2cccnc12)c1cc(Cl)c2c(C#N)ncn2c1N1CCS(=O)(=O)C(C)C1 (stereo unspecified)

- IC50 [3]: ≤ 500 nM
Structure (SMILES): Cc1cc(S(=O)(=O)N[C@H]2CC[C@H](O)CC2)ccc1-c1cnc2c(N)c(Cl)ccn12

- IC50 [12]: > 20000 nM
- IC50 [13]: > 20000 nM
Structure (SMILES): CC(=O)c1c(C)n(-c2ccc(C)cc2)c2ccc(OCC(O)CNCc3ccc(Cl)cc3)cc12 (stereo unspecified)
